Reference: patent US20030018025A1, “Certain 4-aminomethyl-2-substituted imidazole derivatives and 2-aminomethyl-4-substituted imidazole derivatives: new classes of dopamine receptor subtype specific ligands” (Neurogen Corporation, Corporation of the State of Delaware, priority 1995, published 2003)
Entries after “also recorded” stand apart in the source; their conditions may differ. Structures can show the parent of a compound that is named as a salt.

Key:
Dopamine Receptor D3 = molecular target: T1, Dopamine Receptor D3 (Homo sapiens, UniProt P35462); test: D3 receptor binding activity (Example XXXIX)
T1 construct: expressed in transfected cells; host or cells: BHK 293 cells (so in the source)
Experimental: (§1) Striatial tissue is dissected from adult male Sprague Dawley rats or BHK 293 cells are harvested containing recombinantly produced D2 or D3 receptors. The sample is homogenized in 100 volumes (w/vol) of 0.05 M Tris HCl buffer at 4° C. and pH 7.4. The sample is then centrifuged at 30,000× g and resuspended and rehomogenized. The sample is then centrifuged as described and the final tissue sample is frozen until use. The tissue is resuspended 1:20 (wt/vol) in 0.05 M Tris HCl buffer containing 100 mM NaCl.
(§2) Incubations are carried out at […] and contain 0.5 ml of tissue sample, 0.5 nM ^3H-raclopride and the compound of interest in a total incubation volume of 1.0 ml.
(§3) The following compounds were assayed for D2, D3, and D4 receptor binding activity using the assays described above.

Dopamine Receptor D2 = Dopamine Receptor D2 (Homo sapiens, UniProt P14416); test: D2 receptor binding activity (Example XXXIX)
Experimental: as §1, §2, §3

[1] = molecular target: T2, dopamine D4 receptors in human hippocampus (Homo sapiens, UniProt P21917); test: Binding to D4 receptors in human hippocampus
T2 construct: from tissue; host or cells: human hippocampus
T2 sequence (P21917 1-419): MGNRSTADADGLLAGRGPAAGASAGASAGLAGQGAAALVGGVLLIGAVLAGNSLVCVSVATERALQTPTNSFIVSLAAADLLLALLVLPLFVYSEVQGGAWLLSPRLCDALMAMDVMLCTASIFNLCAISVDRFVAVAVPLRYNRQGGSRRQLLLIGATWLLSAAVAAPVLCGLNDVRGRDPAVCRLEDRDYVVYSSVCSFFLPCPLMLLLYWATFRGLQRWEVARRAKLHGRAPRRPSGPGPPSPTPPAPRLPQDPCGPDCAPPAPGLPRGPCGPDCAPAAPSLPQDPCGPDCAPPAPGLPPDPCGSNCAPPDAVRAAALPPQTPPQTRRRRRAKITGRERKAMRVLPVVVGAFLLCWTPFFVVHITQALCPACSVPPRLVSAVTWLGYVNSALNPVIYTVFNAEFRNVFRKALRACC

[2] = molecular target: T3, human dopamine D4 receptor subtype (Homo sapiens, UniProt P21917); test: D4 receptor binding, displacement of [3H]YM-09151-2; conditions: Example XXXIX table
T3 construct: expressed in transfected cells
T3 sequence (P21917 1-419): T2 sequence (P21917 1-419)
Experimental: Assay for D4 Receptor Binding Activity
Clonal cell lines expressing the human dopamine D4 receptor subtype were harvested in PBS and the cells centrifuged and the pellets stored at −80° C. until used in the binding assay. The pellets were resuspended and the cells lysed at 4° C. in 50 mM Tris pH 7.4 buffer containing 120 mM NaCl, 1 mM EDTA and 5 mM MgCl2. The homogenate is centrifuged at 48000× g for 10 minutes at 4° C. The resulting pellet is resuspended in fresh buffer and centrifuged again. After resuspension of the pellet in fresh buffer at […] aliquot is removed for protein determination. The remaining homogenate is centrifuged as above, the supernatant removed and the pellet stored at 4° C. until needed at which time it is resuspended to a final concentration of […] with 50 mM Tris buffer (pH 7.4) and 120 mM NaCl just prior to use. Incubations were carried out for 60 minutes at 25° C. in the presence of 0.1 nM [^3H] YM-09151-2. The incubation was terminated by rapid filtration through Whatman GF/C filters and rinsed with 2×4 ml washes of chilled 50 mM Tris (pH 7.4) and 120 mM NaCl. Non-specific binding was determined with […] spiperone and radioactivity determined by coiunting in an LKB beta counter. Binding parameters were determined by non-linear least squares regression analysis, from which the inhibition constant (Ki) could be calculated for each test compound. The binding characteristics of some examples of this patent are shown in Table 2 for the dopamine D4 binding assay.

[3] = molecular target: T4, dopamine D4 receptors in rat hippocampus (Rattus norvegicus, UniProt P30729); test: Binding to D4 receptors in rat hippocampus
T4 construct: from tissue; host or cells: rat hippocampus
T4 sequence (P30729 1-387): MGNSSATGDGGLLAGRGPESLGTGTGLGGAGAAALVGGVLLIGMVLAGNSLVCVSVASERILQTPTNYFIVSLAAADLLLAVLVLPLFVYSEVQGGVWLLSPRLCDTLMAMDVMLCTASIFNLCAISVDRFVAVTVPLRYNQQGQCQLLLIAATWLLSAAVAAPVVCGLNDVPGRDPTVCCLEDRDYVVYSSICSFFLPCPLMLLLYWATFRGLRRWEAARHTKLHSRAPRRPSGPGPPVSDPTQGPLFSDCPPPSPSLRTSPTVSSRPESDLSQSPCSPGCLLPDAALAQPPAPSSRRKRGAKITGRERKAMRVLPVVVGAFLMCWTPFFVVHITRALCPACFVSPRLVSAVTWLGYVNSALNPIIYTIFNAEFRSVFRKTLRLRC

male Sprague Dawley rats = test: Step-down passive avoidance task; type: in vivo, rat
Experimental: Method Non-naive male Sprague Dawley rats (SASCO St Louis) weighing between […], were housed in groups of three in a temperature and humidity controlled vivarium having a 12 hour light/dark cycle. Animals had ad lib access to food and water.
Clozapine was dissolved in 50% PEG and administered in a dose range of from 0.25 to 2 mg/kg. Both drugs were administered intravenously 5 minutes prior to training in both learning tasks
A step-down passive avoidance platform 4 (cm)×7(cm) was placed in the center of an electrified gris floor, which was contained within a large (45×45×50 cm) white translucent plexiglas enclosure having a closable lid. The bars of the grip were spaced 1.5 cm apart and were wired to a BRS-LVE shock generator/scrambler which was set to deliver a 2 mA 6 second shock. Four passive avoidance boxes were automated by customer software (Labview) and commercial interface modules (National Instruments) connected to a computer The timing and delivery of the shock as well as the latency to steo down and the number of trials taken to reach criterion during training was under the control of the computer. […]
Testing was conduced approximately 24 hours after training, Drug-free animals were placed on the platform in the box in which they were trained and the latency to step down onto the unshocked floor was recorded for one trial. […]

Dopamine Receptor D2, sequence (P14416 whole entry): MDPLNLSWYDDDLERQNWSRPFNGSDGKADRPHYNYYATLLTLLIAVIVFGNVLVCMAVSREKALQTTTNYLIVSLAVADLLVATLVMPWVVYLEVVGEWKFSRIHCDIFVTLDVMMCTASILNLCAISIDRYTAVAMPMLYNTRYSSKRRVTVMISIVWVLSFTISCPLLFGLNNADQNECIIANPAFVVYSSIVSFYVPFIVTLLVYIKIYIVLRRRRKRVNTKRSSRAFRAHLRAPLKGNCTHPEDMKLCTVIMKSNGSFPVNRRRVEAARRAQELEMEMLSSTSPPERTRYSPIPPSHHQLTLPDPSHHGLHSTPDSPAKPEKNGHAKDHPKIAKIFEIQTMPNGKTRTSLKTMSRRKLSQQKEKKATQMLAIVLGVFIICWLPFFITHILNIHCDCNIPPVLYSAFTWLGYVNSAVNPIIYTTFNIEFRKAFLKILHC
T1 sequence (P35462 whole entry): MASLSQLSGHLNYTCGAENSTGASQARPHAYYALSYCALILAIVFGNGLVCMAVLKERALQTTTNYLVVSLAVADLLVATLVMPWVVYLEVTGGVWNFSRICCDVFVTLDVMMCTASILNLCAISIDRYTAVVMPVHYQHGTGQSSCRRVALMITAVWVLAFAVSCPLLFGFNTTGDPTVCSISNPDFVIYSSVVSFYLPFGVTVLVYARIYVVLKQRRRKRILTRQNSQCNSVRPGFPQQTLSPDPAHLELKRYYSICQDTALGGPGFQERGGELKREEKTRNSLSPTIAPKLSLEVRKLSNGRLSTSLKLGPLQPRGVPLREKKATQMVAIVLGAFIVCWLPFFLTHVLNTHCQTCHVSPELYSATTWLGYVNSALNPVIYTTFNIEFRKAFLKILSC

Row | Ki (Dopamine Receptor D3) | Ki (Dopamine Receptor D2) | Ki [2] | SMILES | antagonist binding to D4 receptors in hippocampus [1] | antagonist binding to D4 receptors in hippocampus [3] | passive avoidance retention (time on platform at retest) vs vehicle (male Sprague Dawley rats; 0.25 mg/kg i.v. 5 minutes prior to training, retest about 24 hours later, dihydrochloride, 0.25 mg/kg) | passive avoidance acquisition vs vehicle (male Sprague Dawley rats; 0.03-1.0 mg/kg i.v. 5 minutes prior to training)
1 | 169 nM | 239 nM | 5 nM | c1ccc(-c2ncc(CN3CCN(c4ccccc4)CC3)[nH]2)cc1 [Compound 45, 2-Phenyl-4(5)-[(4-phenyl-piperazin-1-yl)methyl]imidazole] | antagonists binding to dopamine D4 receptors | antagonists binding to dopamine D4 receptors |  | 
2 | 8200 nM |  | 2.7 nM | c1ccc(-c2ncc(CN3CCN(c4ncccn4)CC3)[nH]2)cc1 [Compound 23, 2-Phenyl-4(5)-[(4-(2-pyrimidinyl)-piperazin-1-yl)-methyl]-imidazole dihydrochloride] | antagonists binding to dopamine D4 receptors | antagonists binding to dopamine D4 receptors | significant improvement in memory; also recorded: significantly longer time | no significant differences for acquisition
3 |  | 1030 nM | 0.85 nM | c1ccc(-c2nc(CN3CCN(c4ccccn4)CC3)c[nH]2)cc1 [Compound 24, 2-Phenyl-4(5)-[(4-(2-pyridyl)-piperazin-1-yl)-methyl]-imidazole dihydrochloride] | antagonists binding to dopamine D4 receptors | antagonists binding to dopamine D4 receptors |  | 
